Data on 32 compounds can be found in patent publication US10092575B2, “Substituted thiophene- and furan-fused azolopyrimidine-5-(6H)-one compounds” (DART NEUROSCIENCE (CAYMAN) LTD., priority 2012, dated 2018).

Each structure is given as a SMILES string.

One test addresses human PDE1b enzyme (Homo sapiens (Human), UniProt Q01064). As to the kind of experiment: PDE1b inhibitory assay (IMAP TR-FRET).
Conditions: not given
For orientation: EC50 means the concentration needed to bring the measured effect to its halfway point. Higher therefore signals a need for much substance. As for `COc1ccc(Cn2c(=O)n3ncnc3c3c(CN(C(C)C)C(C)C)csc32)cc1` [Example 215, 9-((Diisopropylamino)methyl)-6-(4-methoxybenzyl)thieno[3,2-e][1,2,4]triazolo[1,5-c]pyrimidin-5(6H)-one], the concentration giving a half-maximal response (EC50) is 100 to 1000 nM. On the same count and under the same terms, the value for `COc1ccc(Cn2c(=O)n3ncnc3c3c(C)csc32)cc1` [Example 28, 6-(4-Methoxybenzyl)-9-methylthieno[3,2-e][1,2,4]triazolo[1,5-c]pyrimidin-5(6H)-one] was 100 to 1000 nM. Same read-out and setting: the value for `O=c1n(Cc2ccc(F)cc2)c2sc3c(c2c2ncnn12)CCOC3` [Example 92, 6-(4-Fluorobenzyl)-6,8,10,11-tetrahydro-5H-pyrano[4′,3′:4,5]thieno[3,2-e][1,2,4]triazolo[1,5-c]pyrimidin-5-one] was 1000 to 10000 nM; that for `O=c1n(Cc2ccccc2Cl)c2sc(Cc3ccccc3)cc2c2ncnn12` [Example 8, 8-benzyl-6-(2-Chlorobenzyl)thieno[3,2-e][1,2,4]triazolo[1,5-c]pyrimidin-5(6H)-one] was 100 to 1000 nM; that for `COc1ccc(Cn2c(=O)n3ncnc3c3c(C)c(CN4CCNCC4)sc32)cc1` [Example 49, 6-(4-Methoxybenzyl)-9-methyl-8-(piperazin-1-ylmethyl)thieno[3,2-e][1,2,4]triazolo[1,5-c]pyrimidin-5(6H)-one] was 100 to 1000 nM.

In turn, `COc1ccc(Cn2c(=O)n3ncnc3c3cc(-c4c(C)noc4C)sc32)cc1` [Example 42, 8-(3,5-Dimethylisoxazol-4-yl)-6-(4-methoxybenzyl)thieno[3,2-e][1,2,4]triazolo[1,5-c]pyrimidin-5(6H)-one] came in with a half-maximal effective concentration (EC50) of 100 to 1000 nM. The compound `COc1ccc(Cn2c(=O)n3ncnc3c3c4c(sc32)N(Cc2ccc(Cl)cc2)CCC4)cc1OC` [Example 153, 8-(4-Chlorobenzyl)-6-(3,4-dimethoxybenzyl)-8,9,10,11-tetrahydropyrido[3′,2′:4,5]thieno[3,2-e][1,2,4]triazolo[1,5-c]pyrimidin-5 (6H)-one] displayed an EC50 of 1000 to 10000 nM. The same measure, in the same setting: the value for `Cc1csc2c1c1ncnn1c(=O)n2Cc1ccc(Cl)cc1` [Example 3, 6-(4-Chlorobenzyl)-9-methylthieno[3,2-e][1,2,4]triazolo[1,5-c]pyrimidin-5(6H)-one] was 100 to 1000 nM.

Compound `COc1ccc(Cn2c(=O)n3ncnc3c3c4c(sc32)COCC4)cc1F` [Example 95, 6-(3-Fluoro-4-methoxybenzyl)-6,8,10,11-tetrahydro-5H-pyrano[4′,3′:4,5]thieno[3,2-e][1,2,4]triazolo[1,5-c]pyrimidin-5-one] came in with an EC50 of 100 to 1000 nM. Same read-out and setting: under `COc1ccc(Cn2c(=O)n3ncnc3c3c4c(sc32)NCCC4)cc1OC` [Example 100, 6-(3,4-Dimethoxybenzyl)-8,9,10,11-tetrahydropyrido[3′,2′:4,5]thieno[3,2-e][1,2,4]triazolo[1,5-c]pyrimidin-5(6H)-one] stands 1000 to 10000 nM; under `COc1ccc(Cn2c(=O)n3ncnc3c3c4c(sc32)CN(Cc2ccc3c(c2)OC(F)(F)O3)CC4)cc1` [Example 114, 9-((2,2-Difluorobenzo[d][1,3]dioxol-5-yl)methyl)-6-(4-methoxybenzyl)-8,9,10,11-tetrahydropyrido[4′,3′:4,5]thieno[3,2-e][1,2,4]triazolo[1,5-c]pyrimidin-5 (6H)-one], 100 to 1000 nM; under `CC(C)CCc1cc2c(s1)n(Cc1cccc(Cl)c1)c(=O)n1ncnc21` [Example 20, 6-(3-Chlorobenzyl)-8-isopentylthieno[3,2-e][1,2,4]triazolo[1,5-c]pyrimidin-5(6H)-one], 1000 to 10000 nM. `COc1ccc(Cn2c(=O)n3ncnc3c3c4c(sc32)N(Cc2cccc(Cl)c2)CCC4)cc1OC` [Example 155, 8-(3-Chlorobenzyl)-6-(3,4-dimethoxybenzyl)-8,9,10,11-tetrahydropyrido[3′,2′:4,5]thieno[3,2-e][1,2,4]triazolo[1,5-c]pyrimidin-5(6H)-one] came in with an EC50 of 1000 to 10000 nM. Turning to `O=c1n(Cc2ccc(-c3ccccc3)cc2)c2sc3c(c2c2ncnn12)CCCC3` [Example 86, 6-([1,1′-Biphenyl]-4-ylmethyl)-8,9,10,11-tetrahydrobenzo[4,5]thieno[3,2-e][1,2,4]triazolo[1,5-c]pyrimidin-5(6H)-one], the EC50 was in the range of 1000 to 10000 nM.

In turn, `CCN(Cc1cc2c(s1)n(Cc1ccc(OC)cc1)c(=O)n1ncnc21)CC1CCOCC1` [Example 198, 8-((Ethyl((tetrahydro-2H-pyran-4-yl)methyl)amino)methyl)-6-(4-methoxybenzyl)thieno[3,2-e][1,2,4]triazolo[1,5-c]pyrimidin-5(6H)-one] registered an EC50 of 1000 to 10000 nM. The same measure, in the same setting: the value for `COc1ccc(Cn2c(=O)n3ncnc3c3cc(CN4CC(O)C4)sc32)c(F)c1F` [Example 212, 6-(2,3-Difluoro-4-methoxybenzyl)-8-((3-hydroxyazetidin-1-yl)methyl)thieno[3,2-e][1,2,4]triazolo[1,5-c]pyrimidin-5(6H)-one] was 100 to 1000 nM; that for `COc1ccc(Cn2c(=O)n3ncnc3c3ccsc32)cc1` [Example 27, 6-(4-Methoxybenzyl)thieno[3,2-e][1,2,4]triazolo[1,5-c]pyrimidin-5(6H)-one] was 100 to 1000 nM; that for `COc1ccc(Cn2c(=O)n3ncnc3c3cc(CN(C)C)sc32)c(F)c1F` [Example 214, 6-(2,3-Difluoro-4-methoxybenzyl)-8-((dimethylamino)methyl)thieno[3,2-e][1,2,4]triazolo[1,5-c]pyrimidin-5(6H)-one] was 100 to 1000 nM.

Staying with this test, now noted: negative log of half-maximal molar inhibitory concentration; 200 nM FAM-cAMP; reported as ranges.
As to `CCN1CCN(Cc2sc3c(c2C)c2ncnn2c(=O)n3Cc2ccc(OC)cc2)CC1=O` [Example 66, 8-((4-Ethyl-3-oxopiperazin-1-yl)methyl)-6-(4-methoxybenzyl)-9-methylthieno[3,2-e][1,2,4]triazolo[1,5-c]pyrimidin-5(6H)-one], the “PDE1b (pEC50)” value is above 7. Still for that read-out and setting: the value for `COc1ccc(Cn2c(=O)n3ncnc3c3c4c(sc32)CN(CC2CCCCO2)CC4)cc1` (centres unmarked) [Example 117, 6-(4-Methoxybenzyl)-9-((tetrahydro-2H-pyran-2-yl)methyl)-8,9,10,11-tetrahydropyrido[4′,3′:4,5]thieno[3,2-e][1,2,4]triazolo[1,5-c]pyrimidin-5(6H)-one] was above 7; that for `COc1ccc(Cn2c(=O)n3ncnc3c3c(C)c(CN4Cc5ccccc5C4)sc32)cc1` [Example 56, 8-(Isoindolin-2-ylmethyl)-6-(4-methoxybenzyl)-9-methylthieno[3,2-e][1,2,4]triazolo[1,5-c]pyrimidin-5(6H)-one] was above 7; that for `COc1ccc(Cn2c(=O)n3ncnc3c3cc(CN4C[C@@H](C)O[C@@H](C)C4)sc32)cc1F` [Example 201, 8-(((2R,6S)-2,6-Dimethylmorpholino)methyl)-6-(3-fluoro-4-methoxybenzyl)thieno[3,2-e][1,2,4]triazolo[1,5-c]pyrimidin-5(6H)-one] was above 7.

As to `COc1ccc(Cn2c(=O)n3ncnc3c3c4c(sc32)NCCC4)cc1` [Example 220, 6-(4-Methoxybenzyl)-8,9,10,11-tetrahydropyrido[3′,2′:4,5]thieno[3,2-e][1,2,4]triazolo[1,5-c]pyrimidin-5(6H)-one], the “PDE1b (pEC50)” value is given as above 7.

On to `COc1ccc(Cn2c(=O)n3ncnc3c3c4c(sc32)CN(C(=O)C2CCOC2)CC4)c(F)c1` (centres unmarked) [Example 167, 6-(2-Fluoro-4-methoxybenzyl)-9-(tetrahydrofuran-3-carbonyl)-8,9,10,11-tetrahydropyrido[4′,3′:4,5]thieno[3,2-e][1,2,4]triazolo[1,5-c]pyrimidin-5(6H)-one], for which the “PDE1b (pEC50)” value was above 7. For `COc1ccc(Cn2c(=O)n3ncnc3c3cc(CN4CCC5(CC4)COC5)sc32)cc1` [Example 39, 8-(2-Oxa-7-azaspiro[3.5]nonan-7-ylmethyl)-6-(4-methoxybenzyl)thieno[3,2-e][1,2,4]triazolo[1,5-c]pyrimidin-5(6H)-one], the “PDE1b (pEC50)” value was above 7. In the case of `COc1ccc(Cn2c(=O)n3ncnc3c3c4c(sc32)CN(CC2CCOC2)CC4)cc1` (centres unmarked) [Example 113, 6-(4-Methoxybenzyl)-9-((tetrahydrofuran-3-yl)methyl)-8,9,10,11-tetrahydropyrido[4′,3′:4,5]thieno[3,2-e][1,2,4]triazolo[1,5-c]pyrimidin-5(6H)-one], the “PDE1b (pEC50)” value is above 7. Same read-out and setting: under `O=c1n(Cc2ccc(Cl)cc2F)c2sc3c(c2c2ncnn12)CCN(Cc1ccccn1)C3` [Example 130, 6-(4-Chloro-2-fluorobenzyl)-9-(pyridin-2-ylmethyl)-8,9,10,11-tetrahydropyrido[4′,3′:4,5]thieno[3,2-e][1,2,4]triazolo[1,5-c]pyrimidin-5 (6H)-one] stands above 7. Same read-out and setting: the value for `COc1ccc(Cn2c(=O)n3ncnc3c3c4c(sc32)CN(CC2CCOCC2)CCC4)cc1` [Example 147, 6-(4-Methoxybenzyl)-9-((tetrahydro-2H-pyran-4-yl)methyl)-6,8,9,10,11,12-hexahydro-5H-[1,2,4]triazolo[1″,5″:1′,6′]pyrimido[5′,4′:4,5]thieno[2,3-c]azepin-5-one] was above 7; that for `COc1ccc(Cn2c(=O)n3ncnc3c3c(C)c(CN4CCC(O)CC4)sc32)cc1` [Example 47, 8-((4-Hydroxypiperidin-1-yl)methyl)-6-(4-methoxybenzyl)-9-methylthieno[3,2-e][1,2,4]triazolo[1,5-c]pyrimidin-5(6H)-one] was above 7; that for `COc1ccc(Cn2c(=O)n3ncnc3c3c4c(sc32)CN(CC2CCOC2)CCC4)cc1` (centres unmarked) [Example 143, 6-(4-Methoxybenzyl)-9-((tetrahydrofuran-3-yl)methyl)-6,8,9,10,11,12-hexahydro-5H-[1,2,4]triazolo[1″,5″:1%6′]pyrimido[5′,4′:4,5]thieno[2,3-c]azepin-5-one] was above 7. Still for that read-out and setting: the value for `COc1ccc(Cn2c(=O)n3ncnc3c3c4c(sc32)CN(CC2CC2)CC4)cc1` [Example 110, 9-(Cyclopropylmethyl)-6-(4-methoxybenzyl)-8,9,10,11-tetrahydropyrido[4′,3′:4,5]thieno[3,2-e][1,2,4]triazolo[1,5-c]pyrimidin-5 (6H)-one] was above 7; that for `COc1ccc(Cn2c(=O)n3ncnc3c3c4c(sc32)CN(c2ccccn2)CC4)cc1` [Example 179, 6-(4-Methoxybenzyl)-9-(pyridin-2-yl)-8,9,10,11-tetrahydropyrido[4′,3′:4,5]thieno[3,2-e][1,2,4]triazolo[1,5-c]pyrimidin-5(6H)-one] was above 7.
